These are literature values, as cited in patent US7098242B2, “Dihydroartemisinin and dihydroartemisitene dimers as anti-cancer and anti-infective agents” (The University of Mississippi, priority 2002, dated 2006).

In data set [1] the test system is chloroquine-sensitive and chloroquine-resistant strains of Plasmodium falciparum.

As to `C[C@H]1[C@H](OC(=O)CCC(=O)[O-])O[C@@H]2O[C@@]3(C)CC[C@H]4[C@H](C)CC[C@@H]1[C@@]24OO3.[Na+]` [sodium artesunate], the “activity relative to other artemisinin derivatives” value in the data set on malaria is reported as “more activity”. As for `C[C@@H]1CC[C@H]2[C@@H](C)C(=O)O[C@@H]3O[C@@]4(C)CC[C@@H]1[C@]32OO4` [artemisinin], in data set [1], the anti-malarial activity result was “anti-malarial activity against both chloroquine-sensitive and chloroquine-resistant strains”.
